From ChEMBL document CHEMBL1201862, “PubChem BioAssay data set” (2004)
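All cell lines were grown in 96-well plates and treated with compound for 48 hours. Abbreviation: GI50, concentration required for 50% inhibition of growth.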 The source made the active and inactive calls. No stated cut-off is given here; in the data, active = GI50 up to about 1.1 µM and inactive = higher.

Assays:
Assay in all cases: growth of human tumour cells (NCI), 48 h
[1] = tested on: NCI-H23
[2] = tested on: NCI-H460
[3] = tested on: SNB-75
[4] = tested on: SF-295
[5] = tested on: OVCAR-5
[6] = tested on: OVCAR-3
[7] = tested on: LOX IMVI
[8] = tested on: U-251
[9] = tested on: HCT-116
[10] = tested on: NCI-H226
[11] = tested on: MOLT-4
[12] = tested on: DMS-273
[13] = tested on: HL-60
[14] = tested on: NCI/ADR-RES
[15] = tested on: XF498
[16] = tested on: SK-OV-3
[17] = tested on: EKVX
[18] = tested on: HT-29
[19] = tested on: UACC-257
[20] = tested on: OVCAR-8
[21] = tested on: HOP-18
[22] = tested on: RPMI-8226
[23] = tested on: SN12C
[24] = tested on: HCT-15
[25] = tested on: MCF7
[26] = tested on: NCI-H522
[27] = tested on: SK-MEL-2
[28] = tested on: UO-31
[29] = tested on: IGROV-1
[30] = tested on: KM-20L2
[31] = tested on: CCRF-CEM
[32] = tested on: A549
[33] = tested on: M19-MEL
[34] = tested on: COLO 205
[35] = tested on: SNB-19
[36] = tested on: K562
[37] = tested on: CAKI-1
[38] = tested on: KM12
[39] = tested on: A498
[40] = tested on: SW-620
[41] = tested on: UACC-62
[42] = tested on: SF-539
[43] = tested on: SF-268
[44] = tested on: HCC 2998
[45] = tested on: HOP-92
[46] = tested on: HOP-62
[47] = tested on: SK-MEL-5
[48] = tested on: RXF 393
[49] = tested on: SNB-78
[50] = tested on: OVCAR-4
[51] = tested on: SK-MEL-28
[52] = tested on: DLD-1
[53] = tested on: Malme-3M
[54] = tested on: SR
[55] = tested on: M14
[56] = tested on: DMS-114
[57] = tested on: LXFL 529
[58] = tested on: 786-0
[59] = tested on: ACHN
[60] = tested on: TK-10

Compound: CCCCC1(C2c3ccccc3Oc3ccccc32)C(=O)N(c2ccccc2)N(c2ccccc2)C1=O
- GI50 [1]: 32.1 µM (inactive)
- GI50 [2]: 47.8 µM (inactive)
- GI50 [3]: 86.7 µM (inactive)
- GI50 [4]: > 92.7 µM (inactive)
- GI50 [5]: > 100 µM (inactive)
- GI50 [6]: 42.3 µM (inactive)
- GI50 [7]: 41 µM (inactive)
- GI50 [8]: 31.3 µM (inactive)
- GI50 [9]: 41.3 µM (inactive)
- GI50 [10]: > 80.9 µM (inactive)
- GI50 [11]: > 10 µM (inactive)
- GI50 [12]: 47 µM (inactive)
- GI50 [13]: 21.9 µM (inactive)
- GI50 [14]: 62.2 µM (inactive)
- GI50 [15]: > 31.9 µM (inactive)
- GI50 [16]: > 100 µM (inactive)
- GI50 [17]: > 100 µM (inactive)
- GI50 [18]: 77.1 µM (inactive)
- GI50 [19]: 29.4 µM (inactive)
- GI50 [20]: > 100 µM (inactive)
- GI50 [21]: > 100 µM (inactive)
- GI50 [22]: 27.7 µM (inactive)
- GI50 [23]: > 61.9 µM (inactive)
- GI50 [24]: 41.3 µM
- GI50 [25]: 55 µM (inactive)
- GI50 [26]: 3.79 µM (inactive)
- GI50 [27]: > 100 µM (inactive)
- GI50 [28]: > 83.2 µM (inactive)
- GI50 [29]: > 72.3 µM (inactive)
- GI50 [30]: 22.5 µM (inactive)
- GI50 [31]: 22.5 µM (inactive)
- GI50 [32]: 39.1 µM (inactive)
- GI50 [33]: > 100 µM (inactive)
- GI50 [34]: > 100 µM (inactive)
- GI50 [35]: 82 µM (inactive)
- GI50 [36]: 18.9 µM (inactive)
- GI50 [37]: 11.6 µM (inactive)
- GI50 [38]: 63.5 µM (inactive)
- GI50 [39]: 64.9 µM (inactive)
- GI50 [40]: 56.6 µM (inactive)
- GI50 [41]: > 89.3 µM (inactive)
- GI50 [42]: > 100 µM (inactive)
- GI50 [43]: > 79.1 µM (inactive)
- GI50 [44]: > 41.1 µM (inactive)
- GI50 [45]: 97.5 µM (inactive)
- GI50 [46]: > 100 µM (inactive)
- GI50 [47]: 34.3 µM (inactive)
- GI50 [48]: 19.9 µM (inactive)
- GI50 [49]: 37.1 µM (inactive)
- GI50 [50]: 60.1 µM (inactive)
- GI50 [51]: > 100 µM (inactive)
- GI50 [52]: 25.8 µM (inactive)
- GI50 [53]: > 100 µM (inactive)

Compound: CC(C)Cc1cc(CCC(=O)Nc2ccccc2[N+](=O)[O-])nc(NC#N)n1
- GI50 [1]: > 100 µM (inactive)
- GI50 [54]: > 100 µM (inactive)
- GI50 [2]: > 100 µM (inactive)
- GI50 [3]: > 100 µM (inactive)
- GI50 [4]: > 100 µM (inactive)
- GI50 [5]: > 100 µM (inactive)
- GI50 [6]: > 100 µM (inactive)
- GI50 [7]: > 100 µM (inactive)
- GI50 [8]: > 100 µM (inactive)
- GI50 [9]: > 100 µM (inactive)
- GI50 [10]: > 100 µM (inactive)
- GI50 [11]: > 100 µM (inactive)
- GI50 [13]: > 100 µM (inactive)
- GI50 [15]: > 100 µM (inactive)
- GI50 [16]: > 100 µM (inactive)
- GI50 [17]: > 100 µM (inactive)
- GI50 [55]: > 100 µM (inactive)
- GI50 [18]: > 100 µM (inactive)
- GI50 [19]: > 100 µM (inactive)
- GI50 [20]: > 100 µM (inactive)
- GI50 [21]: > 100 µM (inactive)
- GI50 [22]: > 100 µM (inactive)
- GI50 [56]: > 100 µM (inactive)
- GI50 [57]: > 100 µM (inactive)
- GI50 [23]: > 100 µM (inactive)
- GI50 [24]: > 100 µM
- GI50 [26]: > 100 µM (inactive)
- GI50 [28]: > 100 µM (inactive)
- GI50 [29]: > 100 µM (inactive)
- GI50 [30]: > 100 µM (inactive)
- GI50 [31]: > 100 µM (inactive)
- GI50 [32]: > 100 µM (inactive)
- GI50 [33]: > 100 µM (inactive)
- GI50 [34]: > 100 µM (inactive)
- GI50 [35]: > 100 µM (inactive)
- GI50 [36]: > 100 µM (inactive)
- GI50 [37]: > 100 µM (inactive)
- GI50 [38]: > 100 µM (inactive)
- GI50 [39]: > 100 µM (inactive)
- GI50 [40]: > 100 µM (inactive)
- GI50 [41]: > 100 µM (inactive)
- GI50 [42]: > 100 µM (inactive)
- GI50 [43]: > 100 µM (inactive)
- GI50 [44]: > 100 µM (inactive)
- GI50 [58]: > 100 µM (inactive)
- GI50 [59]: > 100 µM (inactive)
- GI50 [45]: > 100 µM (inactive)
- GI50 [46]: > 100 µM (inactive)
- GI50 [47]: > 100 µM (inactive)
- GI50 [48]: > 100 µM (inactive)
- GI50 [60]: > 100 µM (inactive)
- GI50 [50]: > 100 µM (inactive)
- GI50 [51]: > 100 µM (inactive)
- GI50 [52]: > 100 µM (inactive)
- GI50 [53]: > 100 µM (inactive)
